Experimental data taken from article PMC9418665, “Fatty acid amide hydrolase inhibition and N‐arachidonoylethanolamine modulation by isoflavonoids: A novel target for upcoming antidepressants” (Pharmacology Research & Perspectives, 2022).
Where two headings read alike, the source gives them in different places.

Molecular target: T1, fatty acid amide hydrolase (FAAH) (Homo sapiens, UniProt O00519)
T1 sequence (O00519 1-579): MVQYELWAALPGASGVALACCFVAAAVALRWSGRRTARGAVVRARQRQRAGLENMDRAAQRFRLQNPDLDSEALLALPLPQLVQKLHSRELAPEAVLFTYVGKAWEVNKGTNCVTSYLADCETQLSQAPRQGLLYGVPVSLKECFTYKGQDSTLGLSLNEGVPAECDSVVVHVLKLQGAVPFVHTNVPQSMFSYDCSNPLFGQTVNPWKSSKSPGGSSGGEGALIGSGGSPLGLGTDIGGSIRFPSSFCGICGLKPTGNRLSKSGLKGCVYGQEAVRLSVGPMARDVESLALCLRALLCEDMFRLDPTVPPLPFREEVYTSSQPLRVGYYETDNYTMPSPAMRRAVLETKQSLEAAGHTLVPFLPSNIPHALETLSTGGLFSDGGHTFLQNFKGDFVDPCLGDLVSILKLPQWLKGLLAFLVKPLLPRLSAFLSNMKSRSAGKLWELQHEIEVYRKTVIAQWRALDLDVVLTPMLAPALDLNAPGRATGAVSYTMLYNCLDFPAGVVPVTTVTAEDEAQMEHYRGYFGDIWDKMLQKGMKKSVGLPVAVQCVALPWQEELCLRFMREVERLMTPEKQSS
Assay: biochemical

| Compound | IC50 | IC50 (read-out: IC50) |
| --- | --- | --- |
| O=c1cc(-c2ccccc2)oc2cc(O)ccc12 [7-hydroxyflavone] | 2040 ± 190 nM | – |
| CCCCC/C=C\C/C=C\C/C=C\C/C=C\CCCC(=O)NCCc1c[nH]c2ccc(O)cc12 [arch-5HT] | 1040 ± 130 nM | – |
| COc1ccc(-c2coc3cc(O)cc(O)c3c2=O)cc1 [biochanin-A] | – | 2100 ± 240 nM |
| O=c1c(-c2ccc(O)cc2)coc2cc(O)cc(O)c12 [genistein] | – | 1300 ± 130 nM |
